Key:
[1] = Paclitaxel levels in mouse tumor; assay type: in vivo; details: female, CDF1, mouse, tumor (Colon 26), intravenous, 50 mg/kg i.v., Colon 26 tumor
Procedure: (§1) Each drug was prepared according to the same method as in Test Example 2 (in vivo antitumor effect on Colon 26). A micelle preparation containing paclitaxel, or paclitaxel alone, each at a dose level of 50 mg/kg, was administered via a mouse caudal vein into female CDF1 mouse transplanted with mouse colon cancer Colon 26 in the back, and after a predetermined time, whole blood was collected through an armpit artery. 0.01 mL of plasma obtained by centrifugation was deproteinized (3 times) with 0.2 mL of water and 1 mL of acetonitrile and then subjected to liquid/liquid extraction by adding 2 mL of t-butyl methyl ether. The organic layer was recovered, evaporated into dryness, dissolved in 0.4 mL of dissolving liquid for HPLC, and measured for its paclitaxel concentration by HPLC. Separately, the tumor was homogenized with 0.5% acetic acid to prepare 1% tumor homogenate, and 0.1 mL of 1% tumor homogenate was deproteinized (3 times) with 0.1 mL of water and 1 mL of acetonitrile and subjected to liquid/liquid extraction by adding 2 mL of t-butyl methyl ether. The organic layer was concentrated and dissolved in 0.4 mL of dissolving liquid for HPLC and measured for its paclitaxel concentration by HPLC.

[2] = test system: female CDF1 mice; experiment: Observation of peripheral nerve damage to mice (stretch reflex); assay type: in vivo, mouse; details: 30 mg/kg in terms of paclitaxel, i.v. for 5 consecutive days, hind limb
Procedure: The micelle preparation of the present invention, or paclitaxel alone, was administered via a mouse caudal vein to female CDF1 mice for 5 consecutive days, and the stretch reflex of the mouse hind limb was observed as an indicator of the peripheral nerve damage caused by paclitaxel. Each drug was prepared in the same manner as in Test Example 2 (in vivo antitumor effect on Colon 26). The dose was 30 mg/kg in terms of paclitaxel.

[3] = Paclitaxel levels in mouse plasma; assay type: in vivo; details: female, intravenous, 50 mg/kg i.v., Colon 26-bearing CDF1 mice
Procedure: as §1

[4] = test system: Mouse colon cancer Colon 26 cells; experiment: In vivo antitumor effect on Colon 26; details: i.v. 3 times at 4-day intervals, Day 11 after administration
Procedure: Mouse colon cancer Colon 26 cells were transplanted subcutaneously in the back of female CDF1 mouse, and after the volume of the tumor reached about 100 mm^3, the micelle preparation of Example 4, or paclitaxel alone as the control drug, was administered via a mouse caudal vein into the mouse 3 times at 4-day intervals, to examine the effect thereof on advanced cancer. The micelle preparation had been diluted with 5% glucose solution to form a solution containing paclitaxel at a concentration of 3 mg/mL. Paclitaxel for use as the sole regimen was dissolved in ethanol and mixed with an equal volume of Cremophor (manufactured by Sigma) to prepare a solution containing paclitaxel at a concentration of 30 mg/mL, and the resulting preparation was diluted with physiological saline to 3 mg/mL just before administration. The antitumor effect of each drug was judged in percentage (T/C %) of the average tumor volume of the group which was given the drug on Day 11 after administration, relative to the average tumor volume of the group which was not given the drug. A lower numerical value is indicative of higher effect.

Structure (SMILES): CC(=O)O[C@H]1C(=O)[C@@]2(C)[C@H]([C@H](OC(=O)c3ccccc3)[C@]3(O)C[C@H](OC(=O)[C@H](O)[C@@H](NC(=O)c4ccccc4)c4ccccc4)C(C)=C1C3(C)C)[C@]1(OC(C)=O)CO[C@@H]1C[C@@H]2O [Paclitaxel alone, paclitaxel]
- concentration at 0.083 h ([1]; 0.083 hours): 7370 ng/mL
- concentration at 0.5 h ([1]; 0.5 hours): 10000 ng/mL
- concentration at 2 h ([1]; 2 hours): 12500 ng/mL
- concentration at 6 h ([1]; 6 hours): 5790 ng/mL
- concentration at 24 h ([1]; 24 hours): 1250 ng/mL
- Mice with loss of stretch reflex [2]: 3/3
- Mice with loss of stretch reflex ([2]; listed as paclitaxel alone): recognized to lose stretch reflex in every mouse
- concentration at 0.083 h ([3]; 0.083 hours): 59300 ng/mL
- concentration at 0.5 h ([3]; 0.5 hours): 31900 ng/mL
- concentration at 2 h ([3]; 2 hours): 14800 ng/mL
- concentration at 6 h ([3]; 6 hours): 710 ng/mL
- T/C % (average tumor volume relative to group not given the drug) ([4]; dose 50 mg/kg): 81.6%
- T/C % (average tumor volume relative to group not given the drug) ([4]; dose 100 mg/kg): 52.6%
